The subject of this experiment is m2 receptors on CHO cells. Nature of the experiment: Expression of m2 receptors on transfected CHO cells (tritiated QNB binding). The format is cell-based, human. As to conditions: DMSO control. From the text:
Sapogenin derivatives of the present invention have also been tested for activity in a number of in-vitro assays. The assays/experiments that were considered of key importance in determining possible activity in the elevation of membrane bound receptor numbers were as follows: • Chinese hamster ovary (CHO) cells transfected with the DNA fragment coding for a muscarinic receptor. The cell line used for the majority of the experiments was a cell line expressing the m2 receptor.
The effects of various compounds on the expression of m2 receptors on CHO cells transfected with DNA for the m2 receptor were investigated. Receptor numbers were assayed using tritiated QNB binding and subtracting non-specific binding. Compounds were dissolved in DMSO and DMSO was used as a control. Compounds were tested at a range of final concentrations. Compounds were also tested in the presence and absence of tamoxifen to try to distinguish an oestrogen receptor mediated mechanism.
Compounds are active when the effect on receptor expression given as a percentage increase compared to control is more than 15%.

For `CC(CO)CCCC(C)C1C(O)CC2C3CC[C@H]4CC(O)CC[C@]4(C)C3CC[C@@]21C` (stereo partly shown), where the note is “molar concentration 10^−5”, the “Activity (effect on expression of m2 receptors, percentage increase compared to control)” value is given as “Active”. Still for that read-out and setting: then `CC1C(=O)OC2CC3C4CC[C@H]5CC(O)CC[C@]5(C)C4CC[C@]3(C)C21` (stereo partly shown), with “Not Active”.

`CC1CCC2(OC1)OC1CC3C4CC[C@H]5CC(O)CC[C@]5(C)C4CC[C@]3(C)C1C2C` (stereo partly shown): the “Activity (effect on expression of m2 receptors, percentage increase compared to control)” value (molar concentration 10^−5) is recorded as “Not Active Not Active” and the “Activity (effect on expression of m2 receptors, percentage increase compared to control)” value (molar concentration 10^−6) is “Not Active Not Active”.

Regarding `CC1CCC2(OC1)OC1CC3C4CC[C@@H]5CC(O)[C@H](O)C[C@]5(C)C4CC[C@]3(C)C1C2C` (stereo partly shown), for the setting “molar concentration 10^−5”, the “Activity (effect on expression of m2 receptors, percentage increase compared to control)” value is given as “Not Active”. Still for that read-out and setting: then `CC1CCC2(OC1)OC1CC3C4CC[C@@H]5CC(O)CC[C@]5(C)C4C(=O)C[C@]3(C)C1C2C` (stereo partly shown), with “Not Active”. Turning to `CC1CCC2(OC1)OC1CC3C4CC=C5CC(O)CC[C@]5(C)C4CC[C@]3(C)C1C2C` (stereo partly shown), the “Activity (effect on expression of m2 receptors, percentage increase compared to control)” value (molar concentration 10^−5) is on record as “Not Active Not Active” and the “Activity (effect on expression of m2 receptors, percentage increase compared to control)” value (molar concentration 10^−6) is “Not Active Not Active”. Consider `CC1CCC2(OC1)OC1CC3C4CC=C5CC(O)C[C@@H](O)[C@]5(C)C4CC[C@]3(C)C1C2C` (stereo partly shown), for which the “Activity (effect on expression of m2 receptors, percentage increase compared to control)” value reads like this: (molar concentration 10^−5) “Not Active Not Active”; (molar concentration 10^−6) “Not Active Not Active”.

The values above are taken from patent US20080021004A1, “Sapogenin derivatives and their use in the treatment of cognitive dysfunction” (PHYTOPHARM PLC, priority 1999, published 2008).
